Experimental data from patent US20080207752A1, “Poly (epsilon-caprolactone-co-methylmethacrylate), method for preparing the same using super critical fluid, and method for preparing therapeutic agent for skin diseases such as acne, atopy and athlete's foot comprising the same” (priority 2007, published 2008).

Assay: Particle size measured using a particle size analyzer
Assay type: physicochemical
Conditions: before supercritical processing
Description: At first, pretreated salicylic acid is 50-100 micron. In Examples, the size of salicylic acid particles prepared in following manners was measured using a particle size analyzer. Spherical nanoparticles of which the particle size is in the range of 50 to 300 nm can be obtained according to the presence of a poly(ε-caprolactone-co-methylmethacrylate) as a biodegradable polymer and operating conditions in the reactor.
As shown in the following Table 1, the present Examples represent the operating conditions of the reactor in the step of formation of a spherical structure. The temperature and the pressure of the reactor must be each above 304.2 K and 73.8 bar. The operating parameters in the reactor are the temperature and the pressure in reactor, the amount of carbon dioxide as a supercritical fluid, and the amount of the mixed solution prepared in the preparation step. In Example 1, the mixed solution contains salicylic acid of 0.0016% by weight alone without a biodegradable polymer. In Example 2 to 8, the solution contains both of salicylic acid of 0.0016% by weight and the poly(ε-caprolactone-co-methylmethacrylate) of 0.0014% by weight as a biodegradable polymer. […] In Examples 1 and 3, the change was measured at 313K and 323K by adjusting the reactor temperature. […]

- particle size of pretreated salicylic acid: 50-100 micron
SMILES: O=C(O)c1ccccc1O [salicylic acid]
